Laboratory results from patent US20240276986A1, “Compositions With Ethofumesate And A Safener” (BAYER AKTIENGESELLSCHAFT, priority 2021, published 2024).
Like-named read-outs stand apart in the source and are kept apart here.

What was measured:
[1] = test system: volunteer wheat (Triticum aestivum L.); details: cited from earlier work
barley and wheat = details: greenhouse studies; cited from earlier work
[2] = test system: annual bluegrass (Poa annua L.); details: pre-emergence or early post-emergence at 0.8 to 4.5 kg/ha; Italian ryegrass seed fields; cited from earlier work
winter barley (HORVW) = experiment: Field trial, crop injury in winter barley after early post-emergence spray; assay type: in vivo, Hordeum vulgare; details: post-emergence BBCH 11, 140 L/ha, ethofumesate 250 g/ha, combination 250 + 100 g/ha, visual rating vs untreated control
Description: (§1) In field trials the interaction of (i) ethofumesate and (ii) the safener mefenpyr-diethyl concerning cereal crop injury was investigated.
(§2) Plots of different verities of wheat and barley crops in the field were sprayed with an application volume of 140 L/ha with a handheld spray boom.
(§3) Application of the application spray compostions was carried out early in each case post-emergence at BBCH growth stage 11 (first leaf unfolded) of the respective wheat or barley crops.
The three different winter barley (HORVW) varieties tested were CALIFORNIA, CIERZO and KWS ORBIT.
(§4) The maximum crop damage and the final crop damage were in each case visually rated on a percentage scale in relation to the untreated control (100%=all plants dead, complete crop kill; 50%=green plant biomass reduced by 50%, and 0%=like control plot, no crop injury).
(§5) The main symptoms of crop damage observed were thinning and stunting.

[3] = test system: soft winter wheat (TRZAW); experiment: Field trial, crop injury in soft winter wheat after early post-emergence spray; assay type: in vivo, Triticum aestivum; details: post-emergence BBCH 11, 140 L/ha, ethofumesate 250 g/ha, combination 250 + 100 g/ha, visual rating vs untreated control
Description: as §1, §2, §3
The four different soft winter wheat (TRZAW) varieties tested were ARTHUR NICK, ELIXER, PISTOLO and RUBISKO.
as §4, §5

[4] = test system: cereral crops such as wheat or barley; experiment: Own experiments, safening effect of mefenpyr-diethyl used with flufenacet; assay type: in vivo; details: used with flufenacet (WSSA group 15); cereal crops such as wheat or barley

Compound	control of volunteer wheat ([1]; 1.7 kg/ha or more, wheat in the one- to three-leaf stage)	control of volunteer wheat ([1]; applied pre-emergence soon after planting or at the end of November to wheat in the four-leaf to four-tiller stage)	susceptibility of barley and wheat to soil residues of ethofumesate relative to corn (barley and wheat)	control of annual bluegrass [2]	Final crop damage in % (winter barley (HORVW); Variety CALIFORNIA) [%]	Maximum crop damage in % (winter barley (HORVW); Variety CALIFORNIA) [%]	Final crop damage in % (winter barley (HORVW); Variety CIERZO) [%]	Maximum crop damage in % (winter barley (HORVW); Variety CIERZO) [%]	Final crop damage in % (winter barley (HORVW); Variety KWS ORBIT) [%]	Maximum crop damage in % (winter barley (HORVW); Variety KWS ORBIT) [%]	Final crop damage in % ([3]; Variety ARTUR NICK) [%]	Maximum crop damage in % ([3]; Variety ARTUR NICK) [%]	Final crop damage in % ([3]; Variety ELIXER) [%]	Maximum crop damage in % ([3]; Variety ELIXER) [%]	Final crop damage in % ([3]; Variety PISTOLO) [%]	Maximum crop damage in % ([3]; Variety PISTOLO) [%]	Final crop damage in % ([3]; Variety RUBISKO) [%]	Maximum crop damage in % ([3]; Variety RUBISKO) [%]	safening effect [4]
CCOC1Oc2ccc(OS(C)(=O)=O)cc2C1(C)C (stereo not shown) [Ethofumesate, 2-ethoxy-2,3-dihydro-3,3-dimethylbenzofuran-5-yl methanesulfonate]	eliminated the wheat	not eliminated	about 10 times	eliminated annual bluegrass	12.5	25	19.7	28	25.0	45	11.6	16	28.3	63	14.0	24	13.7	30	
CCOC(=O)C1=NN(c2ccc(Cl)cc2Cl)C(C)(C(=O)OCC)C1 (stereo not shown) [mefenpyr-diethyl, ethyl 1-(2,4-dichlorophenyl)-5-(ethoxycarbonyl)-5-methyl-2-pyrazoline-3-carboxylate]																			does not have a safening effect
